In data set [1] the test system is fli1:EGFP zebrafish embryos (intersegmental vessel growth). The data set is described as follows: fli1:EGFP zebrafish embryo angiogenesis assay. Type of data set: in vivo. Also on record: fli1:EGFP angiogenesis n (survived/tested): concentration or dose not given beside the values. The note with it: for minimal effective concentration: Danio rerio, lowest concentration producing an effect, compounds not producing an effect shown at the highest evaluated concentration; for fli1:EGFP angiogenesis n (survived/tested): embryos alive after 24 hours of exposure. Put shortly:
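fli1:EGFP embryos grown 24 hpf, dechorionated and exposed to compound or vehicle over a range of concentrations for up to 24 h, with CPS49 as positive control. Imaged at 48 hpf for intersegmental vessel formation and growth; survival after 24 h exposure recorded, and values reflect the lowest concentration producing an effect.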

In another data set the test system is TNF-α protein. The data set is described as follows: TNF-α protein level (ELISA) in LPS-challenged RAW 264.7 cells. As to conditions: LPS 30 or 60 ng/mL, 24 h. Also on record: key: NS=not significant; a “+” sign=anti-inflammatory or increased cell numbers; a “−” sign=cell toxicity or pro-inflammatory. Type of data set: cell-based, mouse. Put shortly: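 RAW 264.7 cells pretreated 1 h with compound in DMSO vehicle, then challenged with LPS (30 or 60 ng/mL) for 24 h at 37° C. Conditioned-media nitrite by Griess (520 nm, sodium nitrite standard curve, 1.5 μM cutoff) in μM; mouse TNF-α by ELISA as pg/ml or % change from control.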
Background: An ELISA detects its analyte on a solid surface through an enzyme-linked reagent.

Molecules are shown by their SMILES.

Broadly, the minimal effective concentration is the lowest level tested that produced the effect sought.

On to `O=C1c2ccccc2CN1C12CC3CC(CC(O)(C3)C1)C2` [Compound 86, 2,3-Dihydro-2-(tricyclo[3.3.1.1^3,7]dec-1-hydroxy-3-yl)-1H-isoindol-1-one], for which, in data set [1], the minimal effective concentration is 200 µg/mL. Besides, in data set [1], the “fli1:EGFP angiogenesis n (survived/tested)” value is on record as 4/12. The TNF-α entry is “NS” with TNF-α protein (1 μM), “+” in the data set with TNF-α protein (10 μM) and “+” with TNF-α protein (30 μM).
As to `CC(N1Cc2c(N)cccc2C1=O)C12CC3CC(CC(C3)C1)C2` (stereo not shown) [Compound 81], the minimal effective concentration in data set [1] stood at 50 µg/mL. Besides, the “fli1:EGFP angiogenesis n (survived/tested)” value in data set [1] is given as 7/8. Further, the results for the TNF-α entry in the data set with TNF-α protein (1 μM), with TNF-α protein (10 μM) and in the data set on TNF-α protein (30 μM) were “NS”, “NS” and “+”, respectively.
For `O=C1CCC(N2C(=O)c3cccc([N+](=O)[O-])c3C2=O)C(=O)N1` (stereo not shown) [Compound 5], the minimal effective concentration in data set [1] came out at 7.5 µg/mL. The “fli1:EGFP angiogenesis n (survived/tested)” value in data set [1] is recorded as 8/14. Also, the TNF-α entry in the data set on TNF-α protein (1 μM), in the data set on TNF-α protein (10 μM), in the data set with TNF-α protein (30 μM), in the data set with TNF-α protein (60 μM) and in the data set with TNF-α protein (100 μM) was “NS” each time.
`Nc1cccc2c1CN(C1CCC(=O)NC1=O)C2=S` (stereo not shown) [Compound 29]: in data set [1], the minimal effective concentration amounted to 10 µg/mL. Further, the “fli1:EGFP angiogenesis n (survived/tested)” value in data set [1] is 6/17. The TNF-α entry in the data set with TNF-α protein (3 μM), in the data set on TNF-α protein (10 μM) and with TNF-α protein (30 μM) was “NS” each time.
In turn, `Nc1cccc2c1CN(C13CC4CC(CC(C4)C1)C3)C2=O` [Compound 77, 2,3-Dihydro-4-amino-2-(tricyclo[3.3.1.1^3,7]dec-1-yl)-1H-isoindol-1-one] came in with a minimal effective concentration in data set [1] of 10 µg/mL. In addition, the “fli1:EGFP angiogenesis n (survived/tested)” value in data set [1] is recorded as 43/62. Also, the TNF-α result in the data set on TNF-α protein (1 μM), in the data set on TNF-α protein (10 μM) and in the data set with TNF-α protein (30 μM) was “NS” each time.
Consider `O=C1NC(=S)CCC1N1C(=O)c2cccc([N+](=O)[O-])c2C1=O` (stereo not shown) [Compound 7, 2-(2-Oxo-6-thioxo-3-piperidinyl)-4-nitro-1H-isoindole-1,3(2H)-dione], for which the minimal effective concentration in data set [1] stood at 10 µg/mL. Further, the “fli1:EGFP angiogenesis n (survived/tested)” value in data set [1] was 28/33. Besides, the TNF-α result in the data set with TNF-α protein (1 μM) is on record as “NS”; in the data set on TNF-α protein (10 μM), “NS”; in the data set on TNF-α protein (30 μM), “NS”; in the data set with TNF-α protein (60 μM) it was “NS”; in the data set with TNF-α protein (100 μM), “+”.

For the origin of these results see patent publication US11440880B2, “Thalidomide analogs and methods of use” (The USA, as represented by the Secretary, Department of …, priority 2015, dated 2022).
